Results from patent US10294246B2, “Substituted boronic acids and boronate esters as immunoproteasome inhibitors” (MERCK PATENT GMBH, priority 2014, dated 2019).
pIC50: −log10 of the molar value.

Tests used:
[1] = target: human immunoproteasome (LMP7) (Homo sapiens (Human), UniProt P28062); test: Determination of LMP7 activity (fluorescence intensity assay, Suc-LLVY-AMC); type: biochemical; conditions: for Selectivity LMP7 vs Beta5: LMP7 versus Beta5; for pIC50: purified human immunoproteasome 0.25 nM, Suc-LLVY-AMC 40 μM
Outline: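 0.25 nM purified human immunoproteasome preincubated 20 min at 25 °C with serially diluted compounds in 50 mM Tris pH 7.4, 0.03% SDS, 1 mM EDTA, 1% DMSO. Reaction started with 40 μM Suc-LLVY-AMC, run 60 min at 37 °C. Fluorescence read at ex 350/em 450 nm.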

[2] = target: human constitutive proteasome (Beta5) (Homo sapiens (Human), UniProt P28074); test: Determination of Beta5 activity (fluorescence intensity assay, Suc-LLVY-AMC); type: biochemical; conditions: purified human constitutive proteasome 1.25 nM, Suc-LLVY-AMC 40 μM
Outline: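 Purified constitutive proteasome (1.25 nM) was preincubated with compounds 20 min at 25 °C in 50 mM Tris pH 7.4, 0.03% SDS, 1 mM EDTA, 1% DMSO. Suc-LLVY-AMC (40 μM) was then added for 60 min at 37 °C. AMC fluorescence was read at ex 350/em 450 nm.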

Structure (SMILES) | Selectivity LMP7 vs Beta5 [1] | pIC50 [1] | pIC50 [2]
COc1ccc(CC(=O)N[C@@H](Cc2cc3ccccc3o2)B(O)O)cc1 [Compound No. 108, [(1R)-2-(benzofuran-2-yl)-1-[[2-(4-methoxyphenyl)acetyl]-amino]ethyl]boronic acid] | +++++ (Selectivity ≥ 100) | > 7.30 | 5.30 to 6.30
CCO[C@@H](C(=O)N[C@@H](CC1COc2c(C)cccc21)B(O)O)c1ccccc1 (stereo partly drawn) [Compound No. 109, [(1R)-1-[[(2R)-2-ethoxy-2-phenyl-acetyl]amino]-2-(7-methyl-2,3-dihydrobenzofuran-3-yl)ethyl]boronic acid] | +++++ (Selectivity ≥ 100) | > 7.30 | < 5.30
O=C(Cc1ccccc1)N[C@@H](Cc1cc2ccccc2o1)B(O)O [Compound No. 110, [(1R)-2-(benzofuran-2-yl)-1-[(2-phenylacetyl)amino]ethyl]boronic acid] | ++++ (70 ≤ Selectivity < 100) | 6.30 to 7.30 | < 5.30
CCO[C@@H](C(=O)N[C@@H](CC1COc2ccccc21)B(O)O)c1ccccc1 (stereo partly drawn) [Compound No. 111, [(1R)-2-(2,3-dihydrobenzofuran-3-yl)-1-[[(2R)-2-ethoxy-2-phenyl-acetyl]amino]ethyl]boronic acid] | +++++ (Selectivity ≥ 100) | > 7.30 | < 5.30
O=C(Cc1ccccn1)NC(Cc1coc2ccccc12)B(O)O (stereo not drawn) [Compound No. 112, [2-(benzofuran-3-yl)-1-[[2-(2-pyridyl)acetyl]amino]ethyl]boronic acid] | +++++ (Selectivity ≥ 100) | > 7.30 | 5.30 to 6.30
CCOc1ccc(CC(=O)N[C@@H](Cc2coc3c(Cl)cccc23)B(O)O)nc1 [Compound No. 113, [(1R)-2-(7-chlorobenzofuran-3-yl)-1-[[2-(5-ethoxy-2-pyridyl)acetyl]amino]ethyl]boronic acid] | +++++ (Selectivity ≥ 100) | > 7.30 | 5.30 to 6.30
COc1ccc(CC(=O)N[C@@H](C[C@@H]2COc3ccccc32)B(O)O)cc1 [Compound No. 114, [(1R)-2-[(3S)-2,3-dihydrobenzofuran-3-yl]-1-[[2-(4-methoxyphenyl)-acetyl]amino]ethyl]boronic acid] | +++++ (Selectivity ≥ 100) | > 7.30 | 5.30 to 6.30
COc1ccc(CC(=O)N[C@@H](C[C@H]2COc3ccccc32)B(O)O)cc1 [Compound No. 115, [(1R)-2-[(3R)-2,3-dihydrobenzofuran-3-yl]-1-[[2-(4-methoxyphenyl)-acetyl]amino]ethyl]boronic acid] | +++++ (Selectivity ≥ 100) | > 7.30 | < 5.30
N#Cc1ccccc1CC(=O)N[C@@H](Cc1coc2c(Cl)cccc12)B(O)O [Compound No. 116, [(1R)-2-(7-chlorobenzofuran-3-yl)-1-[[2-(2-cyanophenyl)acetyl]amino]-ethyl]boronic acid] | +++++ (Selectivity ≥ 100) | > 7.30 | 5.30 to 6.30
COc1ccc(CC(=O)N[C@H](C[C@@H]2COc3ccccc32)B(O)O)cc1 [Compound No. 117, [(1S)-2-[(3S)-2,3-dihydrobenzofuran-3-yl]-1-[[2-(4-methoxyphenyl)-acetyl]amino]ethyl]boronic acid] | +++++ (Selectivity ≥ 100) | 6.30 to 7.30 | < 5.30
COc1ccc(CC(=O)N[C@H](C[C@H]2COc3ccccc32)B(O)O)cc1 [Compound No. 118, [(1S)-2-[(3R)-2,3-dihydrobenzofuran-3-yl]-1-[[2-(4-methoxyphenyl)-acetyl]amino]ethyl]boronic acid] | +++++ (Selectivity ≥ 100) | 6.30 to 7.30 | < 5.30
O=C(Cc1ncccc1C(=O)N1CCOCC1)N[C@@H](Cc1coc2ccccc12)B(O)O [Compound No. 119, [(1R)-2-(benzofuran-3-yl)-1-[[2-[3-(morpholine-4-carbonyl)-2-pyridyl]acetyl]amino]ethyl]boronic acid] | +++++ (Selectivity ≥ 100) | > 7.30 | 5.30 to 6.30
COc1ccc(CC(=O)N[C@@H](C[C@@H]2COc3c(OC)cccc32)B(O)O)cc1 [Compound No. 120, [(1R)-2-[(3S)-7-methoxy-2,3-dihydrobenzofuran-3-yl]-1-[[2-(4-methoxyphenyl)acetyl]amino]ethyl]boronic acid] | +++++ (Selectivity ≥ 100) | > 7.30 | 5.30 to 6.30
O=C(Cc1ccccc1)NC(Cc1coc2c(F)cccc12)B(O)O (stereo not drawn) [Compound No. 121, [2-(7-fluorobenzofuran-3-yl)-1-[(2-phenylacetyl)amino]ethyl]boronic acid] | +++++ (Selectivity ≥ 100) | > 7.30 | 5.30 to 6.30
N#Cc1cccc(CC(=O)N[C@@H](Cc2coc3ccccc23)B(O)O)c1 [Compound No. 123, [(1R)-2-(benzofuran-3-yl)-1-[[2-(3-cyanophenyl)acetyl]amino]ethyl]-boronic acid] | +++++ (Selectivity ≥ 100) | > 7.30 | 5.30 to 6.30
Cc1cccc2c1OC[C@H]2C[C@H](NC(=O)Cc1ccccc1)B(O)O [Compound No. 124, [(1R)-2-[(3S)-7-methyl-2,3-dihydrobenzofuran-3-yl]-1-[(2-phenylacetyl)amino]ethyl]boronic acid] | +++++ (Selectivity ≥ 100) | > 7.30 | < 5.30
O=C(Cc1ccccc1)N[C@@H](Cc1coc2c(F)cccc12)B(O)O [Compound No. 125, [(1R)-2-(7-fluorobenzofuran-3-yl)-1-[(2-phenylacetyl)amino]ethyl]-boronic acid] | +++++ (Selectivity ≥ 100) | > 7.30 | 6.30 to 7.30
Cc1c(Cl)ccc2c(C[C@H](NC(=O)Cc3ccccc3)B(O)O)coc12 [Compound No. 126, [(1R)-2-(6-chloro-7-methyl-benzofuran-3-yl)-1-[(2-phenylacetyl)-amino]ethyl]boronic acid] | +++++ (Selectivity ≥ 100) | > 7.30 | 5.30 to 6.30
Cc1cccc2c1OC[C@@H]2C[C@H](NC(=O)Cc1ccccc1)B(O)O [Compound No. 127, [(1R)-2-[(3R)-7-methyl-2,3-dihydrobenzofuran-3-yl]-1-[(2-phenylacetyl)amino]ethyl]boronic acid] | ++ (10 ≤ Selectivity < 50) | 5.30 to 6.30 | < 5.30
Cc1ccc(C)c2c(C[C@H](NC(=O)Cc3ccccc3)B(O)O)coc12 [Compound No. 128, [(1R)-2-(4,7-dimethylbenzofuran-3-yl)-1-[(2-phenylacetyl)-amino]ethyl]boronic acid] | +++++ (Selectivity ≥ 100) | > 7.30 | < 5.30
COc1ccc(CC(=O)N[C@@H](Cc2coc3c(C)ccc(C)c23)B(O)O)cc1 [Compound No. 129, [(1R)-2-(4,7-dimethylbenzofuran-3-yl)-1-[[2-(4-methoxyphenyl)-acetyl]amino]ethyl]boronic acid] | +++++ (Selectivity ≥ 100) | > 7.30 | 5.30 to 6.30
Cc1cccc2c1OC[C@H]2C[C@H](NC(=O)Cc1ccccc1C#N)B(O)O [Compound No. 130, [(1R)-1-[[2-(2-cyanophenyl)acetyl]amino]-2-[(3S)-7-methyl-2,3-dihydrobenzofuran-3-yl]ethyl]boronic acid] | +++++ (Selectivity ≥ 100) | > 7.30 | < 5.30
CCOc1ccc(CC(=O)N[C@@H](C[C@@H]2COc3ccccc32)B(O)O)nc1 [Compound No. 131, [(1R)-2-[(3S)-2,3-dihydrobenzofuran-3-yl]-1-[[2-(5-ethoxy-2-pyridyl)acetyl]amino]ethyl]boronic acid] | +++++ (Selectivity ≥ 100) | > 7.30 | 5.30 to 6.30
O=C(Cc1ccccc1)N[C@@H](C[C@@H]1COc2c(Cl)cccc21)B(O)O [Compound No. 132, [(1R)-2-[(3S)-7-chloro-2,3-dihydrobenzofuran-3-yl]-1-[(2-phenylacetyl)amino]ethyl]boronic acid] | +++++ (Selectivity ≥ 100) | > 7.30 | 5.30 to 6.30
O=C(Cc1ccccc1)N[C@@H](C[C@H]1COc2c(Cl)cccc21)B(O)O [Compound No. 133, [(1R)-2-[(3R)-7-chloro-2,3-dihydrobenzofuran-3-yl]-1-[(2-phenylacetyl)amino]ethyl]boronic acid] | ++ (10 ≤ Selectivity < 50) | 5.30 to 6.30 | < 5.30
N#Cc1ccccc1CC(=O)N[C@@H](C[C@@H]1COc2c(Cl)cccc21)B(O)O [Compound No. 134, [(1R)-2-[(3S)-7-chloro-2,3-dihydrobenzofuran-3-yl]-1-[[2-(2-cyanophenyl)acetyl]amino]ethyl]boronic acid] | +++++ (Selectivity ≥ 100) | > 7.30 | 5.30 to 6.30
N#Cc1ccccc1CC(=O)N[C@@H](C[C@H]1COc2c(Cl)cccc21)B(O)O [Compound No. 135, [(1R)-2-[(3R)-7-chloro-2,3-dihydrobenzofuran-3-yl]-1-[[2-(2-cyanophenyl)acetyl]amino]ethyl]boronic acid] | +++++ (Selectivity ≥ 100) | 6.30 to 7.30 | < 5.30
